Results: US8188273B2, “Insecticidal (1,3,5)-triazinyl phenyl hydrazones” (Dow AgroSciences, LLC., priority 2007, dated 2012)

Tests used:
[1] = system: beet armyworm (Spodoptera exigua); experiment: Insecticidal test on treated lepidopteran diet, beet armyworm; type: in vivo; settings: 120 h, second-instar larvae on treated diet, 8 wells, dose of 50 mg/cm^2 [sic] (2000 ppm, 50 μL), dead insects counted 5 days after treatment, read-out: AVG LAPHEG 50 (percent control, beet army worm)
Method: (§1) The compounds identified in Table 1 were prepared according to the previous methods and were tested against beet armyworm and corn earworm as follows:
(§2) Insecticidal Test for Corn Earworm (Helicoverpa zea) and Beet Armyworm (Spodoptera exigua).
(§3) To prepare test solution, the test compound was formulated at 2000 ppm solution as 4 mg/2 mL of 9 acetone:1 tap water. 50 μL of the 2000 ppm (equivalent to 50 μg/cm^2 dose on diet surface area) test solution was pipetted upon the surface of 1 mL of lepidopteran diet (Southland Multi-Species Lepidopteran Diet) contained in each of eight wells per insect species (one well=1 replication). A second-instar corn earworm and beet armyworm was placed upon the treated diet in each well once the solvent had air-dried. Trays containing the treated diet and larvae were covered and then held in a growth chamber at 25° C., 50-55% RH, and 16 hr light:8 hr dark for 5 days. Observation were conducted 5 days after treatment and infestation. The number of dead insects of 8 per species per treatment was then determined and the results are given in Table 1 as a percent control at a dose of […].
(§4) Keys to the table: Mass spectral data were obtained using liquid chromatography mass spectroscopy (LC-MS). The masses are detected using electrospray ionization (ESI) and reported as Mol Ion (M+H, M−H); AVG LAPHEG 50 refers to activity against beet army worm (Spodoptera exigua) as defined above; AVG HELIZE 50 refers to activity against corn ear worm (Helicoverpa zea) as described above.

[2] = system: corn earworm (Helicoverpa zea); experiment: Insecticidal test on treated lepidopteran diet, corn earworm; type: in vivo; settings: 120 h; second-instar larvae on treated diet, 8 wells; dose of 50 mg/cm^2 [sic] (2000 ppm, 50 μL); dead insects counted 5 days after treatment; read-out: AVG HELIZE 50 (percent control, corn ear worm)
Method: as §1, §2, §3, §4

## Fc1ccc(Nc2nc(NCc3ccc(Cl)nc3)nc(N/N=C/c3cccc(C(F)(F)F)c3)n2)cc1C(F)(F)F [Compound 74]
[1]
  pest or weed control at 2000 µg/mL: 100%
[2]
  pest or weed control at 2000 µg/mL: 100%

## Fc1cc(/C=N/Nc2nc(Nc3ccc(OC(F)(F)F)cc3)nc(N3CCOCC3)n2)ccc1Cl [Compound 42]
[1]
  pest or weed control at 2000 µg/mL: 88%
[2]
  pest or weed control at 2000 µg/mL: 100%

## FC(F)C(F)(F)Oc1cccc(Nc2nc(NCc3ccc(Cl)nc3)nc(N/N=C/c3ccc(Cl)cc3)n2)c1 [Compound 86]
[1]
  pest or weed control at 2000 µg/mL: 100%
[2]
  pest or weed control at 2000 µg/mL: 100%

## FC(F)C(F)(F)Oc1cccc(Nc2nc(N/N=C/c3ccc(C(F)(F)F)cc3)nc(N3CCOCC3)n2)c1 [Compound 84]
[1]
  pest or weed control at 2000 µg/mL: 25%
[2]
  pest or weed control at 2000 µg/mL: 75%

## FC(F)(F)Oc1ccc(Nc2nc(N/N=C/c3ccc(Cl)c(Cl)c3)nc(N3CCOCC3)n2)cc1 [Compound 39]
[1]
  pest or weed control at 2000 µg/mL: 88%
[2]
  pest or weed control at 2000 µg/mL: 100%

## FC(F)(F)COc1nc(N/N=C/c2ccccc2OC(F)(F)F)nc(Nc2ccc(OC(F)(F)F)cc2)n1 [Compound 36]
[1]
  pest or weed control at 2000 µg/mL: 100%
[2]
  pest or weed control at 2000 µg/mL: 100%

## Fc1ccc(Nc2nc(N/N=C/c3ccc(OC(F)(F)C(F)F)cc3)nc(N3CCOCC3)n2)cc1C(F)(F)F [Compound 52]
[1]
  pest or weed control at 2000 µg/mL: 100%
[2]
  pest or weed control at 2000 µg/mL: 100%

## FC(F)C(F)(F)Oc1ccc(Nc2nc(NCc3ccc(Cl)nc3)nc(N/N=C/c3ccc(C(F)(F)F)cc3)n2)cc1 [Compound 93]
[1]
  pest or weed control at 2000 µg/mL: 100%
[2]
  pest or weed control at 2000 µg/mL: 100%

## Fc1cc(/C=N/Nc2nc(Nc3ccc(OC(F)(F)F)cc3)nc(OCC(F)(F)F)n2)ccc1Cl [Compound 33]
[1]
  pest or weed control at 2000 µg/mL: 100%
[2]
  pest or weed control at 2000 µg/mL: 100%

## Fc1ccc(Nc2ncnc(N/N=C/c3ccc(OC(F)(F)C(F)F)cc3)n2)cc1C(F)(F)F [Compound 97]
[1]
  pest or weed control at 2000 µg/mL: 100%
[2]
  pest or weed control at 2000 µg/mL: 100%

## O=C1CN(c2nc(N/N=C/c3ccc(OC(F)(F)F)cc3)nc(Nc3ccc(OC(F)(F)F)cc3)n2)CCN1 [Compound 6]
[1]
  pest or weed control at 2000 µg/mL: 100%
[2]
  pest or weed control at 2000 µg/mL: 100%

## CCOc1nc(N/N=C/c2ccc(OC(F)(F)F)cc2)nc(Nc2ccc(OC(F)(F)F)cc2)n1 [Compound 8]
[1]
  pest or weed control at 2000 µg/mL: 25%
[2]
  pest or weed control at 2000 µg/mL: 25%

## CCNc1nc(N/N=C/c2ccc(F)cc2)nc(Nc2ccc(OC(F)(F)F)cc2)n1 [Compound 18]
[1]
  pest or weed control at 2000 µg/mL: 75%
[2]
  pest or weed control at 2000 µg/mL: 38%

## COCCNc1nc(N/N=C/c2ccc(F)cc2)nc(Nc2ccc(OC(F)(F)F)cc2)n1 [Compound 17]
[1]
  pest or weed control at 2000 µg/mL: 50%
[2]
  pest or weed control at 2000 µg/mL: 63%

## FC(F)(F)c1cccc(/C=N/Nc2ncnc(Nc3cccc(C(F)(F)F)c3)n2)c1 [Compound 103]
[1]
  pest or weed control at 2000 µg/mL: 38%
[2]
  pest or weed control at 2000 µg/mL: 100%
